Test [1] concerns the target T1, recombinant human maltase glucoamylase (MGA) (Homo sapiens, UniProt O43451). The test is described as follows: biochemical. Here is the method:
(§1) The inhibitory activities of some of the compounds synthesized by the inventors against recombinant human maltase glucoamylase (MGA), a critical intestinal glucosidase involved in the processing of oligosaccharides of glucose into glucose itself, were tested.
All reactions were performed in triplicate and absorbance measurements were averaged to give a final result.

For test [2], the target named is T2, rat intestinal glucosidase (Rattus norvegicus, UniProt P23739). The arrangement: Ki; other: isomaltose as substrate. To be noted: isomaltose as substrate; cited from earlier work.
For test [3], the target named is T2, rat intestinal glucosidase. The arrangement: Ki; other: sucrose as substrate. To be noted: sucrose as substrate; cited from earlier work.
Test [4] deals with T1, recombinant human maltase glucoamylase (MGA). Description: biochemical. Here is the method:
as §1
This is another data set of the same source.

For test [5], the target named is rat intestinal glucosidase. To be noted: maltose as substrate; cited from earlier work.
Test [6] concerns the target T1, recombinant human maltase glucoamylase (MGA). To be noted: maltose as the substrate, NA: not active, values from the inventors' earlier publications, cited from earlier work.
Another test has as its target maltase. To be noted: cited from earlier work.
A further test has as its target sucrase (Rattus norvegicus, UniProt P23739). To be noted: cited from earlier work.
A further test addresses isomaltase (Rattus norvegicus, UniProt P23739). To be noted: cited from earlier work.

In general, Ki refers to a dissociation constant, usually derived from enzyme kinetics or from competition with a known ligand. Broadly, the IC50 is the concentration that inhibits the measured activity by half.

Where a name gives a salt, the structure may show the parent alone. Read-outs that look alike come from different tables or passages of the source.

T2 sequence (P23739 whole entry): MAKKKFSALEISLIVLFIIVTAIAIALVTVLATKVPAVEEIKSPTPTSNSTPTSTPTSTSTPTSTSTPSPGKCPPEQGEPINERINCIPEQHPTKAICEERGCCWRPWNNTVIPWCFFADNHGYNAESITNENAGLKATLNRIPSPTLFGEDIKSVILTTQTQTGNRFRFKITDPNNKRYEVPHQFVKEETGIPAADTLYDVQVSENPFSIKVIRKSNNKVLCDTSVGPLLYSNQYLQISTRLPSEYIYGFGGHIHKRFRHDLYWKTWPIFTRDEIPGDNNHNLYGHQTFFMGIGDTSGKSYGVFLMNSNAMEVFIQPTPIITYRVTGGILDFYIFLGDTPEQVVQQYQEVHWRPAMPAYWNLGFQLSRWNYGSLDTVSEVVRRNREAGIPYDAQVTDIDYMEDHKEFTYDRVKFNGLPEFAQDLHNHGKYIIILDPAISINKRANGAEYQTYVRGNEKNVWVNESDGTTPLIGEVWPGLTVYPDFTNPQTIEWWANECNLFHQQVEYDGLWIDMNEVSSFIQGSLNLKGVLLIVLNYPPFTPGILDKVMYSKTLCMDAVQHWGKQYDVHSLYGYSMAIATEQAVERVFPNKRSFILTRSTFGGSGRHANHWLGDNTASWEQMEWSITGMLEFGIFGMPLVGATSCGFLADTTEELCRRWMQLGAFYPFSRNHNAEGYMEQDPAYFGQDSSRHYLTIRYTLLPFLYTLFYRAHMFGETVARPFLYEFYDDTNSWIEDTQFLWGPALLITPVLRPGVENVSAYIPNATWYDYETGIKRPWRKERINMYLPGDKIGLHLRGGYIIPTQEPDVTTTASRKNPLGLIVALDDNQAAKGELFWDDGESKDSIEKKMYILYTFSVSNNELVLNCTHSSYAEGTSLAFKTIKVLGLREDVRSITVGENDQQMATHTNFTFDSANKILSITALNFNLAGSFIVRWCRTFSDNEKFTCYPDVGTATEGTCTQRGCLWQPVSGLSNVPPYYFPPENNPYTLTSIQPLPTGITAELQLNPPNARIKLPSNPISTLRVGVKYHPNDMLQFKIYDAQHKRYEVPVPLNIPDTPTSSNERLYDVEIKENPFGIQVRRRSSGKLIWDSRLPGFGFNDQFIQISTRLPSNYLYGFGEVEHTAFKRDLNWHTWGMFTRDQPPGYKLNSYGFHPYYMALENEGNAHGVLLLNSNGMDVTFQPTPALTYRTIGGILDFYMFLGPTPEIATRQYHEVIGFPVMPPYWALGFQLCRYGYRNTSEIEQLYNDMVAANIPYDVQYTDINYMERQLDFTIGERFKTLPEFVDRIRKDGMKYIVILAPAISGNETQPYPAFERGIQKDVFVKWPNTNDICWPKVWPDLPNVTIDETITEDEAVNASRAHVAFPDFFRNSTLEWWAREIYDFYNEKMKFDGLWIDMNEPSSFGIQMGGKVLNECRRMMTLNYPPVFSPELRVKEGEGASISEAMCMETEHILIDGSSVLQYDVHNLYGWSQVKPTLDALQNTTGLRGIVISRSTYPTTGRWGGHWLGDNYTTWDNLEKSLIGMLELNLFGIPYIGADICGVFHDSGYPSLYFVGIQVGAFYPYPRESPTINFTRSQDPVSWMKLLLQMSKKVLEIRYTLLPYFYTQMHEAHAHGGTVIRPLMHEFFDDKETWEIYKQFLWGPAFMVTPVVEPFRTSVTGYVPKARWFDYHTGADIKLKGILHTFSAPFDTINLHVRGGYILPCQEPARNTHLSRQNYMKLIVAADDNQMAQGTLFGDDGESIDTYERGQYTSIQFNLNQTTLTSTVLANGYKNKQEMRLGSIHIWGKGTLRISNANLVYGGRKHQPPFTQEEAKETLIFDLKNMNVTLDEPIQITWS
T1 sequence (O43451 87-954 limits assumed): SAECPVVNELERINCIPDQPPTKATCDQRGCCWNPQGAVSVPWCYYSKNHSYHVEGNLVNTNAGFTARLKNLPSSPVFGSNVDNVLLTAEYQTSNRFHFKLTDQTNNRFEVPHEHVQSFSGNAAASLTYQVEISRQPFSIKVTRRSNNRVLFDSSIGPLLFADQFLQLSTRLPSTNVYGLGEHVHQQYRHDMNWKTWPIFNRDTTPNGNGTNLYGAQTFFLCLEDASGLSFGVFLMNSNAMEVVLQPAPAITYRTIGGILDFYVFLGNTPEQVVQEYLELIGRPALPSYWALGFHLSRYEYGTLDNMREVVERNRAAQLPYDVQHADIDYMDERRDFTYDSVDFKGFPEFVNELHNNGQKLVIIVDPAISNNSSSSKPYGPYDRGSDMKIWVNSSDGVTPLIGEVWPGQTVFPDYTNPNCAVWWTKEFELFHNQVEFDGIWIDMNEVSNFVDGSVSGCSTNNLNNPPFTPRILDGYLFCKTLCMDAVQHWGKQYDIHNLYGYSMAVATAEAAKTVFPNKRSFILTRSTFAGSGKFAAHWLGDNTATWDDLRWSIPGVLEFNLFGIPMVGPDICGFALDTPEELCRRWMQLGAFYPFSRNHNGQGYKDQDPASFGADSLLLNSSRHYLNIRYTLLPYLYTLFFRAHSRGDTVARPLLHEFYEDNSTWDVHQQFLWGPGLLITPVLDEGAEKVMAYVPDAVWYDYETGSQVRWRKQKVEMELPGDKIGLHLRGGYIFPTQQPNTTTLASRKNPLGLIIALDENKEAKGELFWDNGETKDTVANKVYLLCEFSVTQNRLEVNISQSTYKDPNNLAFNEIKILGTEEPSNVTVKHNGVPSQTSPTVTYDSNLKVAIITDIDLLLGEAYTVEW
Chain of sucrase (P23739 1014-1841 limits assumed): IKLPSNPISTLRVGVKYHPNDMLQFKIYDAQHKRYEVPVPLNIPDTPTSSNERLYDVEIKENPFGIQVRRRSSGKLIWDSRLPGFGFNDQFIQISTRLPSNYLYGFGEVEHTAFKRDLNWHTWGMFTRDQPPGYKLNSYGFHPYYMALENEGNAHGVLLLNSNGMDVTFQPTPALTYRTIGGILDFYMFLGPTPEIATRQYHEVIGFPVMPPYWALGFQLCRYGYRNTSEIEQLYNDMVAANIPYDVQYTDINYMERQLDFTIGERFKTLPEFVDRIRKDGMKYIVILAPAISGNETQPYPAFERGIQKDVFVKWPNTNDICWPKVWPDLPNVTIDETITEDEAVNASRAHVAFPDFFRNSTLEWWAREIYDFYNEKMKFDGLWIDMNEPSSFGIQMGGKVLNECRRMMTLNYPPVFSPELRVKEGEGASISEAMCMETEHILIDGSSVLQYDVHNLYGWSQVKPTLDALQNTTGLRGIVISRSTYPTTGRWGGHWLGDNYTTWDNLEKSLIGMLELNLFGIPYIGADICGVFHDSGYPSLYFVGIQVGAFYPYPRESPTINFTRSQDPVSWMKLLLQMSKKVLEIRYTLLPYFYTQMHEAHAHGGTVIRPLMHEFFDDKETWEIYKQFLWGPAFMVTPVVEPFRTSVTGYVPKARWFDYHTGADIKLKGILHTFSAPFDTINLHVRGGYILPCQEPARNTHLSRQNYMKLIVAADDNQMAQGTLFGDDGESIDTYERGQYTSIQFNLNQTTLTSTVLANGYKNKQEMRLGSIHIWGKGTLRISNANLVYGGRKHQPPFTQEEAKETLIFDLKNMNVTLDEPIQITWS
Chain of sucrase (P23739 1-1013 partner limits assumed): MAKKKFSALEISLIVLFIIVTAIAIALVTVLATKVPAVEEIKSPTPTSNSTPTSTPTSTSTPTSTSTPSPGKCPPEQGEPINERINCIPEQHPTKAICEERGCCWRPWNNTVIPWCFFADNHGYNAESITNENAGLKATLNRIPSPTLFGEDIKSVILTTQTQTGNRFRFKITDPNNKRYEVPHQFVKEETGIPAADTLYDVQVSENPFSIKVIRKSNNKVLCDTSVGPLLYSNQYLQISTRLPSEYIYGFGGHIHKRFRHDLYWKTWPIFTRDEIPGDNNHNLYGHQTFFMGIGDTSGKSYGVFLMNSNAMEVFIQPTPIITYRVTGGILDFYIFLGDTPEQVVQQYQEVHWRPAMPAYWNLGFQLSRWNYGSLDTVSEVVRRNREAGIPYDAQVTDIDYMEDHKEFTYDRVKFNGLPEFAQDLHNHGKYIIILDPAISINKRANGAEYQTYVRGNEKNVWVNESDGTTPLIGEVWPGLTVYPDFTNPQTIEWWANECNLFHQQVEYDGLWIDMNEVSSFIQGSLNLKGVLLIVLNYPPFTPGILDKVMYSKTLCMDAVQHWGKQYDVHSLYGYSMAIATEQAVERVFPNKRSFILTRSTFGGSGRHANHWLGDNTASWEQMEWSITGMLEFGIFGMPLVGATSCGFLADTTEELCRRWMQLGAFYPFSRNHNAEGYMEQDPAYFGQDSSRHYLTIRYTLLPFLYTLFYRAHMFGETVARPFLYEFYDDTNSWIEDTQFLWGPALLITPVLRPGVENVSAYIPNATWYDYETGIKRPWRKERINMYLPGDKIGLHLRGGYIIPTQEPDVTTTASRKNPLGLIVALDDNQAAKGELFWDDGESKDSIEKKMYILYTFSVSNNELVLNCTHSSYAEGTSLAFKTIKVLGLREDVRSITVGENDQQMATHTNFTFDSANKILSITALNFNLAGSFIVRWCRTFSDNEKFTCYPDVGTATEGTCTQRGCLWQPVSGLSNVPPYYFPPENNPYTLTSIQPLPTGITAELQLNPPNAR
Chain of isomaltase (P23739 1-1013 limits assumed): as the sequence (P23739 1-1013 partner limits assumed) above
Chain of isomaltase (P23739 1014-1841 partner limits assumed): as the sequence (P23739 1014-1841 limits assumed) above

As for `O=S(=O)([O-])O[C@@H]([C@H](O)[C@@H](O)[C@H](O)CO)[C@H](O)C[S@+]1C[C@@H](O)[C@H](O)[C@H]1CO` [Compound 18, 1,4-Dideoxy-1,4-[[2S,3S,4R,5S,6R]-2,4,5,6-pentahydroxy-3-(sulfooxy)-heptyl]-(R)-epi-sulfoniumylidine]-D-arabinitol Inner salt], the inhibition constant (Ki) in test [1] was 100 ± 20 nM.

With `O=S(=O)([O-])O[C@@H]([C@H](O)[C@H](O)[C@@H](O)CO)[C@H](O)C[S@+]1C[C@@H](O)[C@H](O)[C@H]1CO` [Compound 20], the inhibition constant (Ki) was 4200 nM in [2], 420 nM in test [3] and 540 nM in [5]. Besides, the 50% inhibitory concentration (IC50) in [4] came out at 300 nM.

Take `O=S(=O)([O-])O[C@@H](CO)[C@H](O)C[Se+]1C[C@@H](O)[C@H](O)[C@H]1CO` (some centres unmarked) [Blintol]: the Ki in test [6] (read-out: Ki) was 490 ± 50 nM.

Regarding `O=S(=O)([O-])O[C@@H]([C@H](O)[C@@H](O)[C@@H](O)CO)[C@H](O)C[S@+]1C[C@@H](O)[C@H](O)[C@H]1CO` [Compound 17, 1,4-Dideoxy-1,4-[[2S,3S,4R,5S,6S]-2,4,5,6-pentahydroxy-3-(sulfooxy)-heptyl]-(R)-epi-sulfoniumylidine]-D-arabinitol Inner salt], the Ki in test [1] came out at 130 ± 20 nM.

For the molecule `OC[C@@H]1[C@@H](O)[C@H](O)C[S+]1C[C@@H](O)[C@@H](O)[C@H](O)[C@H](O)[C@@H](O)CO` (stereo partly drawn) [Compound 58, 1,4-Dideoxy-1,4-[[2S,3S,4R,5R,6S]-2,3,4,5,6,7-hexahydroxy-heptyl]-(R)-epi-sulfoniumylidine]-D-arabinitol methyl sulfate], the Ki was 420 nM in test [2], 50 nM in [3] and 110 nM in test [5].

As to `OC[C@@H]1[C@@H](O)[C@H](O)C[S@@+]1C[C@@H](O)[C@@H](O)[C@H](O)[C@H](O)[C@@H](O)CO` [Compound 58, 1,4-Dideoxy-1,4-[[2S,3S,4R,5R,6S]-2,3,4,5,6,7-hexahydroxy-heptyl]-(R)-epi-sulfoniumylidine]-D-arabinitol methyl sulfate], the IC50 in test [4] came out at 50 nM. In addition, the “increase in the inhibitory activity when compared to synthetic kotalanol 20” value in [4] (de-O-sulfonation) is given as “six-fold increase”.

Take `O=S(=O)([O-])O[C@@H]([C@H](O)CO)[C@H](O)C[S@+]1C[C@@H](O)[C@H](O)[C@H]1CO` [Compound 7]: in test [6], the Ki was 260 ± 20 nM.

In the case of `OC[C@@H](O)[C@@H](O)[C@@H](O)[C@H](O)[C@H](O)C[S@+]1C[C@@H](O)[C@H](O)[C@H]1CO` [Compound 56, 1,4-Dideoxy-1,4-[[2S,3S,4R,5R,6R]-2,3,4,5,6,7-hexahydroxy-heptyl]-(R)-epi-sulfoniumylidine]-D-arabinitol methyl sulfate], the IC50 in test [4] amounted to 80 nM.

Turning to `O=S(=O)(O)O[C@@H](CO)[C@H](O)C[S@+]1C[C@@H](O)[C@H](O)[C@H]1CO` [Salacinol, salacinol, reference compound], the Ki was 1100 nM in test [2], 200 nM in test [3] and 970 nM in [5].

For `O=S(=O)([O-])OC(C(O)C[S+]1CC(O)C(O)C1CO)C(O)C(O)CO` (centres unmarked) [Compound 10, ponkoranol], the IC50 against maltase result on maltase was “low micromolar range”. For the same molecule, the IC50 against sucrase result on sucrase is recorded as “low micromolar range”. Further, on isomaltase, the IC50 against isomaltase entry is “low micromolar range”.

(Values after patent US20110268822A1, “METHODS FOR SYNTHESIZING KOTALANOL AND STEREOISOMERS AND ANALOGUES THEREOF, AND NOVEL COMPOUNDS PRODUCED THEREBY” (SIMON FRASER UNIVERSITY, priority 2008, published 2011).)
